Values joined by “and” are separate entries in the source; they are usually repeats but may differ in a detail not shown here. Equal values may be shown once.
Test: wn = mass fraction of the nth substance listed
Conditions: Liquid, Pulse-echo method, w2 = 0.5

FC(F)C(F)(F)F [pentafluoroethane] + FCF
speed of sound
Conditions | 253.09 K | 258.09 K | 265.61 K | 273.12 K | 280.72 K | 288.2 K
830 kPa | – | – | – | 574.5 m/s | – | –
1000 kPa | – | 656.5 m/s | – | – | – | –
1030 kPa | – | – | – | – | 535.2 m/s | –
1060 kPa | – | – | – | – | 535.5 m/s | –
1120 kPa | – | 657.6 m/s | – | – | – | –
1150 kPa | – | – | – | – | 536.9 m/s | –
1180 kPa | 684.1 m/s | – | – | – | – | –
1190 kPa | – | – | 618.9 m/s | – | – | –
1220 kPa | – | – | – | 578.8 m/s | – | –
1260 kPa | 684.8 m/s | 658.8 m/s | – | – | 538 m/s | –
1340 kPa | – | – | 620 m/s | – | – | –
1350 kPa | – | – | – | – | – | 496 m/s
1360 kPa | – | – | – | 580.1 m/s | – | –
1380 kPa | 685.8 m/s | 659.7 m/s | – | – | 539.4 m/s | –
1420 kPa | – | – | – | – | – | 497.2 m/s
1480 kPa | – | – | – | – | – | 498 m/s
1500 kPa | 686.8 m/s | 660.8 m/s and 661 m/s | 621.6 m/s | 581.6 m/s | 540.9 m/s | –
1550 kPa | – | – | – | – | – | 499 m/s
1620 kPa | 687.7 m/s | – | – | – | – | –
1630 kPa | – | 662.2 m/s | – | – | 542.3 m/s | –
1750 kPa | 688.8 m/s | 663.1 m/s | 623.8 m/s | 584.2 m/s | 543.8 m/s | –
2010 kPa | 690.6 m/s | 665.1 m/s | 626.1 m/s | 586.8 m/s | 546.7 m/s | –
2250 kPa | 692.6 m/s | 667.1 m/s | 628.3 m/s | 589.4 m/s | 549.6 m/s | –
2510 kPa | 694.3 m/s | 669.2 m/s | 630.7 m/s | 591.9 m/s | 552.3 m/s | –
2750 kPa | 696.4 m/s | 671.4 m/s | 633 m/s | 594.1 m/s | 555 m/s | –
3010 kPa | 698.4 m/s | 673.4 m/s | 635.2 m/s | 596.9 m/s | 557.9 m/s | –
3500 kPa | 702.3 m/s | 677.1 m/s | 639.4 m/s | 601.6 m/s | 563.2 m/s | –
4000 kPa | 705 m/s | 681.1 m/s | 644 m/s | 606.4 m/s | 568.5 m/s | –
4500 kPa | 709.5 m/s | 685.3 m/s | 648.1 m/s | 611 m/s | 573.7 m/s | –
5000 kPa | 713.3 m/s | 689.1 m/s | 652.1 m/s | 615.4 m/s | 579 m/s | –
6010 kPa | 720.6 m/s | 696.6 m/s | 660.6 m/s | 624.4 m/s | 588.6 m/s | –
7010 kPa | 727.4 m/s | 703.9 m/s | 668.4 m/s | 633.3 m/s | 598.3 m/s | –
8000 kPa | 734.2 m/s | 711 m/s | 676.1 m/s | 641.5 m/s | 607.1 m/s | –
9000 kPa | 740.8 m/s | 718.1 m/s | 683.8 m/s | 649.3 m/s | 615.9 m/s | –
10000 kPa | 747.5 m/s | 724.8 m/s | 691 m/s | 657.6 m/s | 624.5 m/s | –
12000 kPa | 760.2 m/s | 738.2 m/s | 705.2 m/s | 672.7 m/s | 640.6 m/s | –
14000 kPa | 772.5 m/s | 751.2 m/s | 718.9 m/s | 687.3 m/s | 656.1 m/s | –
16010 kPa | 784.5 m/s | 763.4 m/s | 732.1 m/s | 701.1 m/s | 670.9 m/s | –
18000 kPa | 795.3 m/s | 775 m/s | 744.4 m/s | 714.5 m/s | 684.9 m/s | –
20000 kPa | 806.9 m/s | 786.7 m/s | 756.2 m/s | 727 m/s | 698.3 m/s | –
23000 kPa | 822.9 m/s | 803.2 m/s | 773.6 m/s | 745.4 m/s | 717 m/s | –
26000 kPa | 837.9 m/s | 818.7 m/s | 790.1 m/s | 762.7 m/s | 735.5 m/s | –
29010 kPa | 852.8 m/s | 833.7 m/s | 806.2 m/s | 779 m/s | 752.6 m/s | –
32000 kPa | 867.2 m/s | 848.7 m/s | 821.5 m/s | 794.8 m/s | 769.2 m/s | –
35000 kPa | 880.5 m/s | 862.6 m/s | 835.5 m/s | 809.6 m/s | 785.1 m/s | –
40000 kPa | 902.6 m/s | 885 m/s | 858.8 m/s | 833.5 m/s | 809.7 m/s | –
45000 kPa | 923.6 m/s | 906.3 m/s | 880.8 m/s | 856.4 m/s | 833.1 m/s | –
50000 kPa | 943.8 m/s | 926.7 m/s | 902 m/s | 877.8 m/s | 855.3 m/s | –
55000 kPa | 962.8 m/s | 946.6 m/s | 922.4 m/s | 898.7 m/s | 876.4 m/s | –
60000 kPa | 981.2 m/s | 965.6 m/s | 941.6 m/s | 919 m/s | 898.9 m/s | –
65000 kPa | 999.5 m/s | 983.3 m/s | 959.9 m/s | 938 m/s | 916.7 m/s | –

Conditions | speed of sound [m/s]
273.12 K | 574.5
280.72 K | 535.2

From the NIST ThermoML archive (doi:10.1021/je060243s)
